# How the values were obtained:
# [1] = Plasma concentration after oral administration; type: in vivo, SD male rats; details: 10 mg/kg oral, suspended in 5% gum arabic, HPLC
# Protocol: A test compound (10 mg/kg) suspended in 5% gum arabic solution was forcibly administered orally to SD male rats weighing 200-250 g. At 0.5, 1, 3, 5 and 8 hours after administration, blood was taken without anesthesia and heparinized plasma was separated by conventional method. The concentration of the test compound in the plasma was determined by high performance liquid chromatography, the results of which are shown in Table 5.
# hepatic ACAT = experiment: Hepatic ACAT inhibitory activity (rabbit liver microsomes, [1-14C]-oleoyl CoA); type: biochemical, Japanese white rabbits; details: Concentration: 10^-6 M; inhibition of cholesteryl oleate production vs control
# Protocol: A high cholesterol feed [a feed added with cholesterol (1%), Clea Japan, Inc.] was fed to male Japanese white rabbits weighing 2-2.5 kg at 100 g per day and the rabbits were bred for 4 weeks. The rabbits were killed by bleeding under anesthesia and liver was removed. The liver was homogenated, and the homogenate was centrifuged at 4° C. and 10,000 rpm for 15 min. The obtained supernatant was further centrifuged at 4° C. and 41,000 rpm for 60 minutes to give microsomal fractions. The microsomal suspension as an enzyme sample, dimethyl sulfoxide (DMSO, […]) or a test compound dissolved in DMSO (test compound solution 3 μl), and reaction substrate [1-^14C]-oleoyl CoA were added to 0.15 M phosphate buffer to the total amount of 300 μl. After incubation at 37° C. for 20 minutes, a chloroform-methanol mixture was added to stop the reaction. Water was added thereto and mixed, and the chloroform layer was separated. The solvent was evaporated to dryness, and the residue was redissolved in n-hexane. The mixture was subjected to thin layer chromatography using a silica gel plate. The spots of cholesteryl oleate on the silica gel plate were scraped, and quantitatively assayed on lo a liquid scintillation counter.
# [2] = tested on: cholesterol secretion from the liver; experiment: Mouse hepatic lipid secretion inhibitory effect (Triton WR-1339 method); type: in vivo, Slc:ICR mice; details: 10 mg/kg/day oral, plasma TC change in 3 hr after Triton WR-1339, read-out: Cholesterol secretion inhibitory rate (%)
# Protocol: About 5 week-old male Slc:ICR mice (Japan SLC) were fed only in the daytime (9:00-18:00) and preliminarily bred for one week. During this period, free access to tap water was allowed during the nighttime, too. The mice were divided into a control group and a test compound group at 6 mice per group, such that the average and standard deviation of the body weight became almost the same. The blood (ca 80 μL) was drawn from the orbital venous plexus using a glass capillary under anesthesia, and at 30 min after blood drawing, a test compound suspended in 5% gum arabic solution in advance was orally administered at a dose of 10 mg/kg. At 30 min after the administration, Triton WR-1339 60 mg/mL solution prepared with physiological saline in advance was administered to the tail vein at a dose of 5 mL/kg. At 3 hr after the Triton WR-1339 administration, the blood was drawn again from the orbital venous plexus. Plasma was separated from the drawn blood, and plasma TC was measured using a commercially available measurement kit (Wako Pure Chemical Industries, Ltd.). Changes in blood-concentration in 3 hr after Triton WR-1339 administration were calculated and taken as the rate of cholesterol secretion from the liver. The rate of secretion was compared between the control group and the test compound group and the secretion inhibitory rate of the test compound was calculated.
# [3] = tested on: THP-1 cell-derived macrophages; experiment: THP-1 cell-derived macrophage foam cell formation suppressing effect (cholesterol ester accumulation inhibitory effect); type: cell-based; details: Homo sapiens, THP-1, 72 h, Concentration: 10^-6 M, acetyl LDL, 3 days culture, read-out: foam cell formation inhibitory rate (%)
# Protocol: THP-1 (Dainippon Pharmaceutical Co., Ltd.) cells were passage cultured in RPMI-1640 medium supplemented with 10% fetal bovine serum (FBS), and the cells of passages 6-13 after purchase were used. The cells were suspended in FBS-containing RPMI-1640 medium to give a suspension having a concentration of 4×10^5 cells/mL. The cell suspension was inoculated to a 12 well microplate by 1 mL, and treated with phorbol 12-myristate 13-acetate (PMA, 200 nM) as a differentiation inducing agent into macrophage. Then acetyl LDL 400 μg/mL prepared separately from plasma-derived LDL of genetically hyperlipidemia rabbit (KHC rabbit, Japan Laboratory Animals, Inc.) was added. In addition, a test compound dissolved in DMSO and diluted with FBS-containing RPMI-1640 medium or a control solvent was added. After culture in a carbon dioxide incubator for 3 days, the cells were washed with phosphate buffered physiological saline (pH 7.0), and the lipid was extracted with n-hexane/isopropanol (3:2). The cells were dissolved in 1M-NaOH and the protein amount was measured. The free cholesterol and cholesterol ester in a lipid extraction sample was measured by the method of Kunitomo et al. (1983). The cholesterol ester was compared between the control cell and the test compound-treated cells, and the cholesterol ester accumulation inhibitory rate of the test compound was calculated.
# LDL = experiment: In vitro LDL peroxidation inhibitory effect (copper sulfate, thiobarbituric acid method); type: biochemical, KHC rabbits; details: Concentration: 10^-5 M; malondialdehyde production, 5 μM copper sulfate, 37° C., 1 hr
# Protocol: The blood was drawn from the auricular artery of KHC rabbits weighing about 3 kg and LDL was separated by a conventional method. A solution (5 μL) of test compound in DMSO or DMSO was added (final concentration 10^−5 M) to LDL suspension (0.5 mg protein/mL, 0.5 mL), aqueous copper sulfate solution (5 μL, final concentration 5 μM) was added, and the mixture was incubated at 37° C. for 1 hr. After the completion of the incubation, EDTA·2Na solution (5 μL, final concentration 1 mM) was added, and lipoperoxide concentration in the-sample was measured by the Yagi's method. To be specific, lipoperoxide in the sample was color developed by the thiobarbituric acid method, measured as malondialdehyde and the activity of the test compound was shown by malondialdehyde production inhibitory rate (%) [to what level the production of malondialdehyde was inhibited as compared to control].
smiles,measurement,setting,value
"CCCCCN1CCc2c(C)c(NS(C)(=O)=O)c(C)c(NC(=O)C(C)(C)C)c21 [Example 11, N-(5-methanesulfonylamino-4,6-dimethyl-1-pentylindolin-7-yl)-2,2-dimethylpropanamide]",Maximum concentration in blood,[1],1.98 µg/mL
"CCCCN1CCc2c(C)c(NS(C)(=O)=O)c(C)c(NC(=O)C(C)(C)C)c21 [Example 12, N-(1-butyl-5-methanesulfonylamino-4,6-dimethylindolin-7-yl)-2,2-dimethylpropanamide]",Maximum concentration in blood,[1],3.05 µg/mL
"Cc1c2c(c(NC(=O)C(C)(C)C)c(C)c1NS(C)(=O)=O)N(CCC(C)C)CC2 [Example 13, N-[5-methanesulfonylamino-4,6-dimethyl-1-(3-methylbutyl)indolin-7-yl]-2,2-dimethylpropanamide]",Maximum concentration in blood,[1],1.36 µg/mL
"CCCN1CCc2c(C)c(NS(C)(=O)=O)c(C)c(NC(=O)C(C)(C)C)c21 [Example 14, N-(5-methanesulfonylamino-4,6-dimethyl-1-propylindolin-7-yl)-2,2-dimethylpropanamide]",Maximum concentration in blood,[1],2.30 µg/mL
"Cc1c2c(c(NC(=O)C(C)(C)C)c(C)c1NS(C)(=O)=O)N(CC(C)C)CC2 [Example 15, N-[5-methanesulfonylamino-4,6-dimethyl-1-(2-methylpropyl)indolin-7-yl]-2,2-dimethylpropanamide]",Maximum concentration in blood,[1],1.68 µg/mL
"CCN1CCc2c(C)c(NS(C)(=O)=O)c(C)c(NC(=O)C(C)(C)C)c21 [Example 16, N-(1-ethyl-5-methanesulfonylamino-4,6-dimethylindolin-7-yl)-2,2-dimethylpropanamide]",Maximum concentration in blood,[1],2.90 µg/mL
"CCCN1CCc2c(C)c(NS(N)(=O)=O)c(C)c(NC(=O)C(C)(C)C)c21.Cl [Example 17, N-(4,6-dimethyl-1-propyl-5-sulfamoylaminoindolin-7-yl)-2,2-dimethylpropanamide hydrochloride]",Hepatic ACAT inhibitory ratio (%),hepatic ACAT,86.4%
same,inhibition in vivo at 10 mg/kg,[2],44.4%
"CCCCCN1CCc2c(C)c(NS(N)(=O)=O)c(C)c(NC(=O)C(C)(C)C)c21.Cl [Example 18, N-(4,6-dimethyl-1-pentyl-5-sulfamoylaminoindolin-7-yl)-2,2-dimethylpropanamide hydrochloride]",Hepatic ACAT inhibitory ratio (%),hepatic ACAT,96.7%
same,inhibition at 1 µM,[3],93%
same,inhibition in vivo at 10 mg/kg,[2],41.4%
"CCCCCCN1CCc2c(C)c(NS(C)(=O)=O)c(C)c(NC(=O)C(C)(C)C)c21 [Example 22, N-(1-hexyl-5-methanesulfonylamino-4,6-dimethylindolin-7-yl)-2,2-dimethylpropanamide]",Maximum concentration in blood,[1],1.12 µg/mL
"Cc1c2c(c(NC(=O)C(C)(C)C)c(C)c1NS(C)(=O)=O)N(C1CCCC1)CC2 [Example 41, N-(1-cyclopentyl-5-methanesulfonylamino-4,6-dimethylindolin-7-yl)-2,2-dimethylpropanamide]",Hepatic ACAT inhibitory ratio (%),hepatic ACAT,97.3%
same,inhibition at 1 µM,[3],76.5%
same,inhibition in vivo at 10 mg/kg,[2],58.5%
same,Maximum concentration in blood,[1],2.03 µg/mL
"CCCN1c2c(c(C)c(NS(N)(=O)=O)c(C)c2NC(=O)C(C)(C)C)CC1C.Cl (stereo not shown) [Example 53, N-(2,4,6-trimethyl-1-propyl-5-sulfamoylaminoindolin-7-yl)-2,2-dimethylpropanamide hydrochloride]",inhibition at 1 µM,[3],70%
same,Maximum concentration in blood,[1],1.31 µg/mL
CC(C)(Sc1cc(C(C)(C)C)c(O)c(C(C)(C)C)c1)Sc1cc(C(C)(C)C)c(O)c(C(C)(C)C)c1 [Probucol],LDL peroxidation inhibitory ratio (%),LDL,33.8%
